Laboratory results published in US20110306579A1, “METHODS OF NEUROPROTECTION USING NEUROPROTECTIVE STEROIDS AND A VITAMIN D” (EMORY UNIVERSITY, priority 2009, published 2011).

What was measured:
[1] = tested on: moderate to severe TBI patients; settings: cited from earlier work
[2] = tested on: E18 rat primary cortical neurons; assay: Morphological analysis of cortical cultures (phase contrast); format: cell-based; settings: glutamate 0.5 μM for 24 h; data not shown
Description: Changes in the morphology of neurons treated with different drugs in various groups were observed using a phase-contrast microscope (Nikon). Primary cultures were mainly observed for neurite outgrowth, a hallmark feature of healthy cells, and the density of healthy cells in different groups.

[3] = tested on: E18 rat primary cortical neurons; assay: Glutamate-induced excitotoxic cell death (LDH release and MTT reduction assays); format: cell-based
Description: Lactate dehydrogenase (LDH) release and 3-(4,5-dimethylthiazol-2-yl)-2,5-diphenyltetrazolium bromide (MTT) reduction assays were used to measure cell death. NeuroPureTM E18 primary rat cortical cells were commercially procured (Catalogue # N200200, Genlantis, San Diego, Calif., USA) as micro-surgically dissected regions from day 18 embryonic Sprague-Dawley rat brain. The tissues were processed for culturing according to manufacturer specifications. Briefly, enzymatic pre-treatment of the tissue was done prior to mechanical dissociation by incubating the tissues in sterile NeuroPapain enzyme solution at 30° C. for 30 minutes. Following incubation, the cells were centrifuged and transferred to fresh plating medium, where they were then dissociated into isolated neurons using a P-1000 pipettor with a sterile 1 ml plastic tip (0.8-1.0 mm diameter opening). The cells were again centrifuged and seeded in multi-well plates pre-coated with poly-D-lysine (0.15 ml/cm^2, 50 μg/ml) and maintained at 37° C. in a humidified 5% CO2 atmosphere. All experiments were performed after 9-10 days in culture. Twenty-four hours before glutamate exposure, cultures were pre-treated with both PROG (Cat. #P3972; Sigma Aldrich, St. Louis, Mo., USA) and VDH(Cat. #D1530; Sigma) separately or in combination with VDH at various concentrations. Stock solutions of PROG and VDH were prepared in dimethylsulfoxide (DMSO; Cat. #D2650; […] Glutamate was diluted in phosphate-buffered saline (PBS, pH 7.4). All reagents were filter sterilized before being added to cultures. At Day 11, cortical neurons in fresh media were separated into five treatment groups: (i) control; (ii) 24 hour treatment with 0.5 μM glutamate (Sribnick E A, et al., (2004) J Neurosci Res 76: 688-696); ([…]) with subsequent exposure to glutamate for 24 hours; (iv) 24 hour pre-treatment with VDH (1, 5, 10, 20, 40, 80, 100 nM) with subsequent exposure to glutamate for 24 hours; (v) 24 hour pre-treatment with different combinations of PROG and […]: 20 μM+VDH: 1, 5, 10, 20, 40, 80, 100 nM) with subsequent exposure to glutamate for 24 hours. Two widely accepted assays (LDH release and MTT reduction assay) for the measurement of cell viability were used. These assays are considered very reliable and reproducible with high predictive validity and are widely used in various pharmacological studies ([…], et al., (2002) Endocrinology 143: 205-212.). The LDH assay was performed as follows. […] LDH activity was measured using a Cytotoxicity Detection Kit (Roche Molecular Biochemicals, Indianapolis, Ind., USA) and quantitated by measuring absorbance at 490 nm. Data were normalized against the amount of LDH activity released from vehicle-treated control cultures receiving no glutamate. Neuronal death was also assessed by MTT [3-(4,5-dimethylthiazol-2-yl)-2,5-diphenyltetrazolium bromide] assay, which is based on the cleavage of the tetrazolium ring of the pale yellow MTT into dark blue formazan crystals by mitochondrial dehydrogenase enzyme in viable cells. These blue formazan crystals accumulate within the cells due to their impermeability to cell membrane, and are then solubilized by adding DMSO. The intensity of blue colored formazan solution is directly proportional to the number of surviving cells. Concentrations were determined by photometric analysis. Briefly, 10 μl of MTT were added per well and incubated at 37° C. for 4 hours until purple precipitate was visible. DMSO (50 μl) was added to solubilize the crystals and the absorbance was read at 570 nm.

Compound: CC(=O)[C@H]1CCC2C3CCC4=CC(=O)CC[C@]4(C)C3CC[C@@]21C (stereo partly drawn) [progesterone]
- reduction of mortality ([1]; 3 days of intravenous treatment, 100 patients): over 60%
- functional outcomes ([1]; 30 days post-injury): significantly improved functional outcomes
- morphology of neurons (neuronal processes, number of neurons) after glutamate [2]: rescued neurons
- best (most effective) concentration alone against glutamate-induced neuronal death ([3]; LDH and MTT assays): 20 µM
- glutamate-induced cell death compared to vehicle-only group ([3]; PROG at higher concentrations (10, 20, 40, and 80 μM), LDH and MTT assays, P<0.001): significant reduction
- glutamate-induced cell death compared to vehicle-only group ([3]; PROG at lower concentrations (0.01, 0.1, 1, 5 μM), 24 h pre-treatment, glutamate 0.5 μM 24 h): did not show any decrease in cell death
